Assay results taken from US20240327415A1, “Multicomponent Complexes, Including Salts, Crystalline Forms, and Hydrates and Solvates of ENT1 Inhibitors” (iTeos Belgium SA, priority 2023, published 2024).

Legend:
Format in all cases: physicochemical
[1] = salt screen, XRPD of damp, dried and 40° C./75% RH stored samples (Salt Preparation Methods 1 and 2); set-up: key: A = amorphous; Evap. = isolated via evaporation
Procedure: (§1) Salt Preparation Method 1: Approximately 25 mg of Compound 1 (free base) was weighed out into 1.5 mL screw-cap vials and a stirrer bar was added. For solid counterions, the appropriate amount of acid (1.0 or 2.0 equiv.) was weighed into separate 1.5 mL screw-cap vials. 100 μL of the appropriate solvent system was added to both the Compound 1 and the solid counterions. Stock solutions of liquid counterions were prepared, such that 100 μL contained 1.0 or 2.0 equiv. of acid. See counterion and solvent lists in Table 60 and Table 61 respectively.
(§2) The samples were stirred at 40° C. for 5-10 min and then the acid solutions were added to Compound 1, rinsing out the transfer vial with a further 50 μL of solvent. […] Experiments were temperature cycled between 40° C. and 5° C. (1 h hold; 0.1° C./min ramp/cool) for ca. 24-68 h. Anti-solvent addition (ASA) was carried out to slurries at 5° C. then experiments were heated to 30° C. over 1 h. ASA was carried out at 30° C. or 40° C. where clear solutions or gums were observed.
(§3) Temperature cycling was then continued for ca. 16-69 h, followed by further ASA and temperature cycling if required. Material was isolated at 5° C. and analyzed damp by XRPD. All isolated material was dried under vacuum at ca. 40° C. for ca. 17-91 h then re-analyzed by XRPD. The XRPD plate was stored at 40° C./75% RH for 24-48 h and then samples re-analyzed. Solutions were stored uncapped at ambient temperature to evaporate. Any residual solids were analyzed by XRPD.
(§4) Salt Preparation Method 2: The general procedure adopted in preparing the potential salts is outlined below. A known mass of Compound 1 (free base) and a known volume of the appropriate solvent system were added to 20 mL scintillation vials. The required mol. equiv. of the appropriate counterions were added to the vials as solutions or slurries in the corresponding solvent system.
(§5) The experiments were stirred at 40° C. for ca. 1 h, and then temperature cycled between 40° C. and 5° C. with 0.1° C./min ramp and 1 h hold between each step. Anti-solvent additions and subsequent slurrying at 5° C. were employed in order to facilitate crystallization. […] The damp and dried solids were subsampled and analyzed by XRPD. Where applicable, the dried solids were stored at 40° C./75% RH for 24-48 h in order to improve the crystallinity and/or facilitate solid form conversion to the desired form.

[2] = as above; set-up: key to XRPD Analysis Damp/Dry: A = amorphous; Evap. = isolated via evaporation; conditions: Benzenesulfonic acid, 1 equiv.; IPA:H2O (75:25% v/v); AS tBME; (evap.)
Procedure: as §1, §2, §3, §4, §5

[3] = seven-day solid stability studies (ambient; 40° C./75% RH; 80° C.), XRPD and HPLC; set-up: key to XRPD Analysis: Amorphous Compound 1 (free base); Crystalline Form 1 Compound 1 (free base); conditions: for degradation by HPLC: after 7 days storage at 40° C./75% RH and ambient conditions; for decrease in purity by HPLC: after 7 days storage at 80° C.
Procedure: In the experiment, one set of vials was exposed to ambient light, temperature and humidity conditions. Another was exposed openly to 40° C. and 75% RH conditions and a third was sealed and exposed to 80° C. conditions. After 7 days, XRPD and HPLC measurements were collected.
Example 12-Stability Studies of Amorphous Compound 1 (free base) and Crystalline Form 1 Compound 1 (free base): Seven-day stability studies were carried out comparing amorphous Compound 1 (free base) and crystalline Form 1 Compound 1 (free base) at 40° C./75% RH, under ambient conditions and at 80° C. After storage at 40° C./75% RH and 80° C., the amorphous material formed glassy solids which were pale yellow (40° C./75% RH) or orange (80° C.). It is likely that the material melted and re-solidified at 80° C. and deliquesced at 40° C./75% RH. […] (decrease in purity of ca. 11% area).
Example 15-Stabilities Studies-Crystalline Form 3 Compound 1 di(hydrogen sulfate) and Crystalline Form 4 Compound 1 mono(hydrogen sulfate): Seven-day stability studies were carried out on the prepared crystalline Form 3 Compound 1 di(hydrogen sulfate) and crystalline Form 4 Compound 1 mono(hydrogen sulfate) using the following conditions: (1) Ambient light, temperature and humidity conditions (open vial); (2) 40° C./75% RH (open vial); and (3) 80° C. (closed vial). After 7 days of storage under the specified conditions, XRPD and HPLC analyses were carried out on the residual solid materials, and the results are summarized in Table 51.
Example 18-Seven Day Stability Study on Crystalline Form 2 Compound 1 di(hydrogen sulfate) trihydrate: A 7-day stability study was conducted on crystalline Form 2 Compound 1 di(hydrogen sulfate) trihydrate using the following conditions: (1) ambient light, temperature, and humidity conditions (open vial); (2) 40° C., 75% RH (open vial); and (3) 80° C. (closed vial). After 7 days of storage under the specified, XRPD and HPLC analyses were carried out on the residual solid materials.

[4] = Dynamic Vapor Sorption (DVS)
Procedure: (§6) METHOD A: In Example 11, approximately 5-15 mg of sample was placed into a mesh vapor sorption balance pan and loaded into either a DVS Intrinsic or DVS Advantage dynamic vapor sorption balance by Surface Measurement Systems. The sample was subjected to a ramping profile from 40-90% relative humidity (RH) at 10% increments, maintaining the sample at each step until a stable weight had been achieved (dm/dt 0.004%, minimum step length 30 minutes, maximum step length 500 minutes) at 25° C. After completion of the sorption cycle, the sample was dried using the same procedure to 0% RH and then a second sorption cycle back to 40% RH was carried out. Two cycles were performed. The weight change during the sorption/desorption cycles were plotted, allowing the hygroscopic nature of the sample to be determined. XRPD analysis was then carried out on the residual solid.
as §6, with “B:” for “A:”, “Examples 2A, 3, 14, and 17,” for “Example 11,”, “10-20” for “5-15”, “determined.” for “determined. XRPD analysis was then carried out on the residual solid.”
as §6, with “Approximately 10-20” for “METHOD A: In Example 11, approximately 5-15”, “RH” for “relative humidity (RH)”, “min,” for “minutes,”, “min)” for “minutes)”, “determined.” for “determined. XRPD analysis was then carried out on the residual solid.”

[5] = Benzenesulfonic acid, 1 equiv., Acetonitrile, AS tBME
[6] = Benzenesulfonic acid, 1 equiv., Ethanol, AS Heptane
[7] = Benzenesulfonic acid, 1 equiv., Ethyl acetate, AS Heptane
[8] = Benzenesulfonic acid, 1 equiv., MEK, AS Heptane
[9] = Benzenesulfonic acid, 1 equiv., THF, AS Heptane
[10] = Hydrochloric acid, 1 equiv., Acetonitrile, AS tBME, (evap.)
[11] = Hydrochloric acid, 1 equiv., Ethanol*, AS Heptane, (evap.)
[12] = Hydrochloric acid, 1 equiv., Ethyl acetate, AS Heptane
[13] = Hydrochloric acid, 1 equiv., IPA:H2O (75:25% v/v), AS tBME, (evap.)
[14] = Hydrochloric acid, 1 equiv., MEK, AS Heptane
[15] = Hydrochloric acid, 1 equiv., THF, AS Heptane
[16] = Benzenesulfonic acid, 2 equiv., Acetonitrile, AS tBME
[17] = Benzenesulfonic acid, 2 equiv., Ethanol, AS Heptane
[18] = Benzenesulfonic acid, 2 equiv., Ethyl acetate, AS Heptane
[19] = Benzenesulfonic acid, 2 equiv., IPA:H2O (75:25), AS tBME
[20] = Benzenesulfonic acid, 2 equiv., MEK, AS Heptane
[21] = Benzenesulfonic acid, 2 equiv., THF, AS Heptane

## O=S(=O)(O)c1ccccc1 [Benzenesulfonic acid, 1 equiv.]
[1]; [5]
  XRPD Analysis 40° C. 75% RH: A
  XRPD Analysis Damp: A
  XRPD Analysis Dry: A
[1]; [6]
  XRPD Analysis 40° C. 75% RH: A
  XRPD Analysis Damp: A
  XRPD Analysis Dry: A
[1]; [7]
  XRPD Analysis 40° C. 75% RH: A
  XRPD Analysis Damp: A
  XRPD Analysis Dry: A
[1]; Benzenesulfonic acid, 1 equiv., IPA:H2O (75:25% v/v), AS tBME
  XRPD Analysis 40° C. 75% RH: A
[1]; [8]
  XRPD Analysis 40° C. 75% RH: A
  XRPD Analysis Damp: A
  XRPD Analysis Dry: A
[1]; [9]
  XRPD Analysis 40° C. 75% RH: A
  XRPD Analysis Damp: A
  XRPD Analysis Dry: A
[2]
  XRPD Analysis Damp/Dry: A (evap.)

## COc1cc(C(=O)O[C@@H]2CCCOc3cc(cc(OC)c3OC)C(=O)NCCCN3CCCN(CC2)CC3)cc(OC)c1OC [Form 1 Compound 1]
[3]; 7 days, 40° C./75% RH
  XRPD Analysis: A
[3]; 7 days, 80° C.
  Post-Storage Observations: Orange glassy
  Solid Purity: 84.1 % area
  XRPD Analysis: 1
[3]; 7 days, Ambient
  Post-Storage Observations: White solid
  Solid Purity: 99.9 % area
  XRPD Analysis: A

## COc1cc(C(=O)O[C@@H]2CCCOc3cc(cc(OC)c3OC)C(=O)NCCCN3CCCN(CC2)CC3)cc(OC)c1OC [crystalline Form 1 Compound 1 (free base)]
[4]; 25° C.
  hygroscopicity: slightly hygroscopic
[4]; DVS at 25° C.
  post-DVS sample (XRPD / appearance): predominantly amorphous material was recovered
[4]; at 80% RH, second sorption cycle, after likely formation of amorphous material
  moisture uptake (DVS): 3.3%
[4]; between 40-80% RH, first sorption cycle, 25° C.
  moisture uptake (DVS): 0.9%
[4]; between 80-90% RH, 25° C.
  moisture uptake (DVS): 3.8%
[3]; 7 days, 40° C./75% RH
  solid form by XRPD after storage: amorphous material was recovered
[3]; 7 days, 80° C.
  solid form by XRPD after storage: amorphous material was recovered
[3]; 7 days, ambient conditions
  solid form by XRPD after storage: retained
[3]
  degradation by HPLC: no significant degradation
  decrease in purity by HPLC: ca. 15 % area

## COc1cc(C(=O)O[C@@H]2CCCOc3cc(cc(OC)c3OC)C(=O)NCCCN3CCCN(CC2)CC3)cc(OC)c1OC.O=S(=O)(O)O [Form 4 mono(hydrogen sulfate)]
[3]; 7 days, 40° C./75% RH (open vial)
  HPLC: 99.87 % area
[3]; 7 days, 40° C./75% RH, open vial
  HPLC: 99.87 % area
[3]; 7 days, 80° C. (closed vial)
  HPLC: 99.64 % area
  XRPD: Amorphous*
[3]; 7 days, 80° C., sealed
  HPLC: 99.64 % area
  XRPD: Amorphous*
[3]; 7 days, Ambient (open vial)
  HPLC: 99.89 % area
[3]; 7 days, Ambient, open vial
  HPLC: 99.89 % area
[3]; Input sample
  HPLC: 99.66 % area

## COc1cc(C(=O)O[C@@H]2CCCOc3cc(cc(OC)c3OC)C(=O)NCCCN3CCCN(CC2)CC3)cc(OC)c1OC [amorphous Compound 1 (free base)]
[4]; 25° C.
  hygroscopicity: hygroscopic
[3]; 7 days, 40° C./75% RH
  Post-Storage Observations: Pale yellow
  Solid Purity: 98.8 % area
  XRPD Analysis: A
[3]; 7 days, 80° C.
  Post-Storage Observations: Orange glassy
  Solid Purity: 87.5 % area
  XRPD Analysis: A
[3]; 7 days, Ambient
  Post-Storage Observations: White solid
  Solid Purity: 98.9 % area
  XRPD Analysis: A
[3]; 7 days, all storage conditions
  solid form by XRPD after storage: remained amorphous
[3]
  degradation by HPLC: no significant degradation
  decrease in purity by HPLC: ca. 11 % area
[3]; before storage
  Input Material Purity: 98.8 % area

## Cl [Hydrochloric acid, 1 equiv.]
[1]; Hydrochloric acid, 1 equiv., Acetonitrile, AS tBME
  XRPD Analysis 40° C. 75% RH: A
[1]; [10]
  XRPD Analysis Damp: A
  XRPD Analysis Dry: A
[1]; Hydrochloric acid, 1 equiv., Ethanol*, AS Heptane
  XRPD Analysis 40° C. 75% RH: A
[1]; [11]
  XRPD Analysis Damp: A
  XRPD Analysis Dry: A
[1]; [12]
  XRPD Analysis 40° C. 75% RH: A
  XRPD Analysis Damp: A
  XRPD Analysis Dry: A
[1]; Hydrochloric acid, 1 equiv., IPA:H2O (75:25% v/v), AS tBME
  XRPD Analysis 40° C. 75% RH: A
[1]; [13]
  XRPD Analysis Damp: A
  XRPD Analysis Dry: A
[1]; [14]
  XRPD Analysis 40° C. 75% RH: A
  XRPD Analysis Damp: A
  XRPD Analysis Dry: A
[1]; [15]
  XRPD Analysis 40° C. 75% RH: A
  XRPD Analysis Damp: A
  XRPD Analysis Dry: A

## O=S(=O)(O)c1ccccc1 [Benzenesulfonic acid, 2 equiv.]
[1]; [16]
  XRPD Analysis 40° C. 75% RH: A
  XRPD Analysis Damp: A
  XRPD Analysis Dry: A
[1]; [17]
  XRPD Analysis 40° C. 75% RH: A
  XRPD Analysis Damp: A
  XRPD Analysis Dry: A
[1]; [18]
  XRPD Analysis 40° C. 75% RH: A
  XRPD Analysis Damp: A
  XRPD Analysis Dry: A
[1]; [19]
  XRPD Analysis 40° C. 75% RH: A
  XRPD Analysis Damp: A
  XRPD Analysis Dry: A
[1]; [20]
  XRPD Analysis 40° C. 75% RH: A
  XRPD Analysis Damp: A
  XRPD Analysis Dry: A
[1]; [21]
  XRPD Analysis 40° C. 75% RH: A
  XRPD Analysis Damp: A
  XRPD Analysis Dry: A
